Test results as given in US4112228A, “7-(D-α-Hydroxy-2-arylacetamido)-3-(2-carboxyalkyl-2,3-dihydro-s-tri azolo-[4,3-b]pyridazin-3-on-6-ylthiomethyl)-3-cephem-4-carboxylic acids and derivatives” (priority 1977, dated 1978).
Converted amounts (≈) assume the structure as drawn. Read-outs that look alike come from different tables or passages of the source.

Assays:
[1] = Blood levels in mice after subcutaneous administration; assay type: in vivo; conditions: mouse, read-out: Blood level; for concentration at 0.25 h: 15'; for concentration at 0.5 h: 30'; for concentration at 1 h: 60'; for concentration at 2 h: 120'
Description: Groups of mice were administered subcutaneously graded doses of 40, 20 and 10 mg./kg..

[2] = test system: Kl. pneumoniae; test: MIC by Steers' agar dilution method; assay type: cell-based; conditions: Klebsiella pneumoniae
[3] = test system: P. stuartii; test: MIC by Steers' agar dilution method; conditions: Providencia stuartii
[4] = test system: Citrobacter sp.; test: MIC by Steers' agar dilution method
[5] = test system: Pr. morganii; test: MIC by Steers' agar dilution method; conditions: Morganella morganii
[6] = test system: P. inconstans; test: MIC by Steers' agar dilution method; conditions: Providencia alcalifaciens
[7] = test system: D. pneumoniae; test: MIC by Steers' agar dilution method
[8] = test system: Enterob. cloacae; test: MIC by Steers' agar dilution method
[9] = test system: Klebsiella sp.; test: MIC by Steers' agar dilution method
[10] = test system: P. mirabilis A9900 (Pm-2); test: Standard experimental infection (single sc treatment); conditions: for No. of survivors/No. tested: Run C-810, 1×10^3 LD50, single sc
[11] = Urinary recovery in rats; assay type: in vivo; conditions: rat, urine, sc 10 mg./kg., 0-24 Hrs.

Structure (SMILES): Cn1nnnc1SCC1=C(C(=O)O)N2C(=O)[C@@H](NC(=O)[C@H](O)c3ccccc3)[C@H]2SC1 [Cefamandole, cefamandole, reference compound]
- concentration at 0.25 h ([1]; sc 10 mg./kg.): 3800 ng/mL
- concentration at 0.5 h ([1]; sc 10 mg./kg.): 1500 ng/mL
- concentration at 1 h ([1]; sc 10 mg./kg.): 300 ng/mL
- concentration at 2 h ([1]; sc 10 mg./kg.): 100 ng/mL
- concentration at 0.25 h ([1]; sc 20 mg./kg.): 9500 ng/mL
- concentration at 0.5 h ([1]; sc 20 mg./kg.): 4100 ng/mL
- concentration at 1 h ([1]; sc 20 mg./kg.): 1000 ng/mL
- concentration at 2 h ([1]; sc 20 mg./kg.): < 100 ng/mL
- concentration at 0.25 h ([1]; sc 40 mg./kg.): 18000 ng/mL
- concentration at 0.5 h ([1]; sc 40 mg./kg.): 11000 ng/mL
- concentration at 1 h ([1]; sc 40 mg./kg.): 3900 ng/mL
- concentration at 2 h ([1]; sc 40 mg./kg.): 300 ng/mL
- MIC ([2]; A9678, MHA, Table 1): 3.1 µg/mL (≈ 6.7 µM)
- MIC ([2]; A9867, MHA, Table 1): 0.8 µg/mL (≈ 1.73 µM)
- MIC ([2]; A9977, MHA, Table 1): 0.2 µg/mL (≈ 0.432 µM)
- MIC ([2]; A15130, MHA, Table 1): 0.8 µg/mL (≈ 1.73 µM)
- MIC ([2]; Kp-1 D11, MHA, Table 3): 0.8 µg/mL (≈ 1.73 µM)
- MIC ([2]; Kp-2 A9678, MHA, Table 3): 1.6 µg/mL (≈ 3.46 µM)
- MIC ([2]; Kp-3 A9977, HIA, Table 4): 0.8 µg/mL (≈ 1.73 µM)
- MIC ([2]; Kp-3 A9977, MHA, Table 3): 0.8 µg/mL (≈ 1.73 µM)
- MIC ([2]; Kp-3 A9977, MHA, Table 4): 0.8 µg/mL (≈ 1.73 µM)
- MIC ([2]; Kp-3 A9977, NA, Table 4): 0.4 µg/mL (≈ 0.865 µM)
- MIC ([2]; Kp-4 A15130, HIA, Table 4): 0.8 µg/mL (≈ 1.73 µM)
- MIC ([2]; Kp-4 A15130, MHA, Table 3): 0.8 µg/mL (≈ 1.73 µM)
- MIC ([2]; Kp-4 A15130, MHA, Table 4): 0.8 µg/mL (≈ 1.73 µM)
- MIC ([2]; Kp-4 A15130, NA, Table 4): 0.8 µg/mL (≈ 1.73 µM)
- MIC ([2]; Kp-7 A9867, MHA, Table 3): 0.8 µg/mL (≈ 1.73 µM)
- MIC ([2]; Kp-8 A20680, MHA, Table 3): 12.5 µg/mL (≈ 27 µM)
- MIC ([2]; Kp-9 A20636, MHA, Table 3): 12.5 µg/mL (≈ 27 µM)
- MIC ([2]; Kp-10 A20328, MHA, Table 3): 3.1 µg/mL (≈ 6.7 µM)
- MIC ([2]; Kp-11 A20330, MHA, Table 3): 12.5 µg/mL (≈ 27 µM)
- MIC ([2]; Kp-12 A21228, MHA, Table 3): 6.3 µg/mL (≈ 13.6 µM)
- MIC ([2]; strain not named (1st of 4), MHA, Example 10): 3.1 µg/mL (≈ 6.7 µM)
- MIC ([2]; strain not named (2nd of 4), MHA, Example 10): 0.8 µg/mL (≈ 1.73 µM)
- MIC ([2]; strain not named (3rd of 4), MHA, Example 10): 0.8 µg/mL (≈ 1.73 µM)
- MIC ([2]; strain not named (4th of 4), MHA, Example 10): 0.8 µg/mL (≈ 1.73 µM)
- MIC ([3]; Ps-1 A20745, HIA, Table 4): 6.3 µg/mL (≈ 13.6 µM)
- MIC ([3]; Ps-1 A20745, MHA, Table 3): 0.8 µg/mL (≈ 1.73 µM)
- MIC ([3]; Ps-1 A20745, MHA, Table 4): 1.6 µg/mL (≈ 3.46 µM)
- MIC ([3]; Ps-1 A20745, NA, Table 4): 6.3 µg/mL (≈ 13.6 µM)
- MIC ([3]; Ps-2 A20894, HIA, Table 4): 0.4 µg/mL (≈ 0.865 µM)
- MIC ([3]; Ps-2 A20894, MHA, Table 3): 0.8 µg/mL (≈ 1.73 µM)
- MIC ([3]; Ps-2 A20894, MHA, Table 4): 0.2 µg/mL (≈ 0.432 µM)
- MIC ([3]; Ps-2 A20894, NA, Table 4): 0.4 µg/mL (≈ 0.865 µM)
- MIC ([3]; Ps-3 A20911 (β-lactamase), HIA, Table 4): 6.3 µg/mL (≈ 13.6 µM)
- MIC ([3]; Ps-3 A20911 (β-lactamase), MHA, Table 4): 3.1 µg/mL (≈ 6.7 µM)
- MIC ([3]; Ps-3 A20911 (β-lactamase), NA, Table 4): 6.3 µg/mL (≈ 13.6 µM)
- MIC ([3]; Ps-3 A20911, MHA, Table 3): 0.8 µg/mL (≈ 1.73 µM)
- MIC ([3]; Ps-4 A21051, MHA, Table 3): 25 µg/mL (≈ 54.1 µM)
- MIC ([3]; Ps-5 A21057, MHA, Table 3): 0.8 µg/mL (≈ 1.73 µM)
- MIC ([4]; Citrobacter): 1.6 µg/mL (≈ 3.46 µM)
- MIC ([4]; Cx-2 A20694, MHA, Table 3): 1.6 µg/mL (≈ 3.46 µM)
- MIC ([4]; Cx-3 A20695, MHA, Table 3): 1.6 µg/mL (≈ 3.46 µM)
- MIC ([5]; A9553, MHA, Table 1): > 100 µg/mL
- MIC ([5]; A20031, MHA, Table 1): 0.8 µg/mL (≈ 1.73 µM)
- MIC ([5]; Pg-1 A9553 (β-lactamase), HIA, Table 4): > 100 µg/mL
- MIC ([5]; Pg-1 A9553 (β-lactamase), MHA, Table 4): > 100 µg/mL
- MIC ([5]; Pg-1 A9553 (β-lactamase), NA, Table 4): > 100 µg/mL
- MIC ([5]; Pg-1 A9553, MHA, Table 3): > 100 µg/mL
- MIC ([5]; Pg-2 A20031, HIA, Table 4): 0.8 µg/mL (≈ 1.73 µM)
- MIC ([5]; Pg-2 A20031, MHA, Table 3): 1.6 µg/mL (≈ 3.46 µM)
- MIC ([5]; Pg-2 A20031, MHA, Table 4): 0.8 µg/mL (≈ 1.73 µM)
- MIC ([5]; Pg-2 A20031, NA, Table 4): 0.4 µg/mL (≈ 0.865 µM)
- MIC ([5]; Pg-3 A9636, MHA, Table 3): 1.6 µg/mL (≈ 3.46 µM)
- MIC ([5]; Pg-5 A15166, MHA, Table 3): 0.2 µg/mL (≈ 0.432 µM)
- MIC ([5]; Pg-6 A20455 (β-lactamase), HIA, Table 4): 3.1 µg/mL (≈ 6.7 µM)
- MIC ([5]; Pg-6 A20455 (β-lactamase), MHA, Table 4): 1.6 µg/mL (≈ 3.46 µM)
- MIC ([5]; Pg-6 A20455 (β-lactamase), NA, Table 4): 1.6 µg/mL (≈ 3.46 µM)
- MIC ([5]; Pg-6 A20455, MHA, Table 3): 1.6 µg/mL (≈ 3.46 µM)
- MIC ([5]; Pg-7 A20457, MHA, Table 3): 0.8 µg/mL (≈ 1.73 µM)
- MIC ([5]; Pg-8 A15153, MHA, Table 3): 0.8 µg/mL (≈ 1.73 µM)
- MIC ([5]; Pg-9 A15149, MHA, Table 3): 3.1 µg/mL (≈ 6.7 µM)
- MIC ([5]; strain not given (1st of 2), MHA, Example 10): > 100 µg/mL
- MIC ([5]; strain not named (2nd of 2), MHA, Example 10): 0.8 µg/mL (≈ 1.73 µM)
- MIC [6]: 0.8 µg/mL (≈ 1.73 µM)
- MIC ([7]; Dp-2 Type I Neufeld, MHA, Table 2): 0.2 µg/mL (≈ 0.432 µM)
- MIC ([7]; Dp-3 Type III, MHA, Table 2): 0.2 µg/mL (≈ 0.432 µM)
- MIC ([7]; Dp-4 A9585, MHA, Table 2): 0.2 µg/mL (≈ 0.432 µM)
- MIC ([7]; Dp-5 A15069, MHA, Table 2): 0.2 µg/mL (≈ 0.432 µM)
- MIC ([7]; Dp-6 A20167, MHA, Table 2): 0.2 µg/mL (≈ 0.432 µM)
- MIC ([7]; Dp-7 A20759, MHA, Table 2): 0.2 µg/mL (≈ 0.432 µM)
- MIC ([7]; Dp-8 A20769, MHA, Table 2): 0.2 µg/mL (≈ 0.432 µM)
- MIC ([7]; Dp-9 A20770, MHA, Table 2): 0.2 µg/mL (≈ 0.432 µM)
- MIC ([7]; Streptococcus pneumoniae): 0.2 µg/mL (≈ 0.432 µM)
- MIC ([8]; A9656, MHA, Table 1): 3.1 µg/mL (≈ 6.7 µM)
- MIC ([8]; El-1 A9656, HIA, Table 4): 3.1 µg/mL (≈ 6.7 µM)
- MIC ([8]; El-1 A9656, MHA, Table 3): 3.1 µg/mL (≈ 6.7 µM)
- MIC ([8]; El-1 A9656, MHA, Table 4): 3.1 µg/mL (≈ 6.7 µM)
- MIC ([8]; El-1 A9656, NA, Table 4): 6.3 µg/mL (≈ 13.6 µM)
- MIC ([8]; El-2 A20364 (β-lactamase), HIA, Table 4): 100 µg/mL (≈ 216 µM)
- MIC ([8]; El-2 A20364 (β-lactamase), MHA, Table 4): 50 µg/mL (≈ 108 µM)
- MIC ([8]; El-2 A20364 (β-lactamase), NA, Table 4): 6.3 µg/mL (≈ 13.6 µM)
- MIC ([8]; El-2 A20364, MHA, Table 3): 3.1 µg/mL (≈ 6.7 µM)
- MIC ([8]; El-4 A20650, MHA, Table 3): 1.6 µg/mL (≈ 3.46 µM)
- MIC ([8]; El-6 A9657, MHA, Table 3): 0.8 µg/mL (≈ 1.73 µM)
- MIC ([8]; El-7 A9659, MHA, Table 3): 0.8 µg/mL (≈ 1.73 µM)
- MIC ([8]; El-8 A9655, MHA, Table 3): 1.6 µg/mL (≈ 3.46 µM)
- MIC ([8]; El-9 A20021, MHA, Table 3): 100 µg/mL (≈ 216 µM)
- MIC ([8]; El-11 A20344 (β-lactamase), HIA, Table 4): > 100 µg/mL
- MIC ([8]; El-11 A20344 (β-lactamase), MHA, Table 4): > 100 µg/mL
- MIC ([8]; El-11 A20344 (β-lactamase), NA, Table 4): > 100 µg/mL
- MIC ([8]; El-11 A20344, MHA, Table 3): > 100 µg/mL
- MIC ([8]; El-12 A21006, MHA, Table 3): 3.1 µg/mL (≈ 6.7 µM)
- MIC ([8]; El-14 A20953, MHA, Table 3): 3.1 µg/mL (≈ 6.7 µM)
- MIC ([8]; MHA, Example 10): 3.1 µg/mL (≈ 6.7 µM)
- MIC ([9]; Kx-2 A9662, MHA, Table 3): 1.6 µg/mL (≈ 3.46 µM)
- MIC ([9]; Kx-3 A20346 (β-lactamase), HIA, Table 4): 0.4 µg/mL (≈ 0.865 µM)
- MIC ([9]; Kx-3 A20346 (β-lactamase), MHA, Table 4): 0.4 µg/mL (≈ 0.865 µM)
- MIC ([9]; Kx-3 A20346 (β-lactamase), NA, Table 4): 0.4 µg/mL (≈ 0.865 µM)
- MIC ([9]; Kx-3 A20346, MHA, Table 3): 0.8 µg/mL (≈ 1.73 µM)
- ED50 ([10]; Proteus mirabilis, in Mus musculus, sc, read-out: PD50): 50 mg/kg
- No. of survivors/No. tested ([10]; 0.2 mg./kg.): 0/5
- No. of survivors/No. tested ([10]; 0.8 mg./kg.): 0/5
- No. of survivors/No. tested ([10]; 3.1 mg./kg.): 0/5
- No. of survivors/No. tested ([10]; 12.5 mg./kg.): 1/5
- No. of survivors/No. tested ([10]; 50 mg./kg.): 2/5
- dose excreted at 24 h [11]: 58.3%
